This note sets out measurements from ChEMBL document CHEMBL4130419, “Novel chemotypes targeting tubulin at the colchicine binding site and unbiasing P-glycoprotein” (Eur J Med Chem, 2017).

Broadly, the IC50 is the concentration at which inhibition is half-maximal. In general, efflux ratio refers to the permeability from basolateral to apical divided by that in the opposite direction, in the common usage. One may read the Papp B→A as the apparent permeability from the basolateral to the apical side of a cell layer. Usually Papp A→B stands for the apparent permeability from the apical to the basolateral side of a cell layer.

In series [1] the test system is MCF7. Description: Antiproliferative activity against human MCF7 cells after 72 hrs by MTT assay. The settings on record: MCF7, 72 h. The format is functional, cell-based. In general terms: Formazan colour is commonly taken as a measure of viable cells.
For series [2], the system named is SH-SY5Y. Description: Antiproliferative activity against human SH-SY5Y cells after 72 hrs by MTT assay. The class given is functional, cell-based.
Series [3] deals with HepG2. Briefly: Antiproliferative activity against human HepG2 cells after 72 hrs by MTT assay. The format is functional, cell-based. As to conditions: HepG2, 72 h.
For series [4], the species on record is Sus scrofa. Description: Inhibition of tubulin polymerization in porcine brain assessed as disruption of microtubule organization after 1 hr by fluorescence polarization assay. Background: Fluorescence polarisation rises when a labelled molecule tumbles more slowly, as on binding a larger partner.
Series [5] has as its system HeLa. Description: Antiproliferative activity against human HeLa cells after 72 hrs by MTT assay. The format is functional, cell-based.
The nature of series [6]: Efflux ratio of apparent permeability from basolateral to apical over apical to basolateral side in MDCK2-MDR1 cells at 75 uM after 2 hrs by UV-visible spectroscopy. The class given is ADME, cell-based, Canis lupus familiaris. The settings on record: dog, MDCK-MDR1.
Series [7] can be described thus: Apparent permeability from basolateral to apical side in MDCK2-MDR1 cells at 75 uM after 2 hrs UV-visible spectroscopy. The format is ADME, cell-based, Canis lupus familiaris. The settings on record: dog, MDCK-MDR1.
Series [8] in a line: Apparent permeability from apical to basolateral side in MDCK2-MDR1 cells at 75 uM after 2 hrs UV-visible spectroscopy. As to conditions: dog, MDCK-MDR1. The class given is ADME, cell-based, Canis lupus familiaris.

In the case of `Cc1cccc(-n2nc(C)c3c2NC2=C(C(=O)CC(C)(C)C2)C3c2ccc(O)cc2)c1` (centres undefined), the IC50 in series [1] was 25 µM; in series [2] it was 70.8 µM; in series [3] it was > 100 µM; in series [5], 10.7 µM. The inhibition result in series [4] was “Dose-dependent effect”.
`Cc1n[nH]c(O)c1C(c1cccc(OCc2ccc(F)cc2)c1)c1c(O)n[nH]c1C`: the half-inhibitory concentration (IC50) is 8 µM in series [1], 43.7 µM in series [2], > 100 µM in series [3] and 23.9 µM in series [5]. Also, the inhibition result in series [4] was “Dose-dependent effect”.
Taken in the same sequence, the figures for `CCOC(=O)c1c(NC(=O)C2=C(C)N=C(S)NC2c2ccc(CC)cc2)sc(C)c1C` (centres undefined) were 26 µM, > 100 µM, > 100 µM, 36.3 µM and “Dose-dependent effect”.
For the compound `Cc1cc(C)c(O)c(-c2n[nH]c3c2C(c2ccccc2)N(CCCO)C3=O)c1` (centres undefined), the IC50 in series [1] is 54 µM; in series [2] it was 51.3 µM; in series [3], 48.9 µM; in series [5] it was 50.1 µM. Besides, the inhibition result in series [4] was “Dose-dependent effect”.
For the compound `Cc1ccc(NC(=O)Cn2c(C(F)(F)F)nc3ccccc32)c(-c2nc(C3CC3)n[nH]2)c1`, the IC50 was determined as 13 µM in series [1], 0.9 µM in series [2], 38.9 µM in series [3] and 1.6 µM in series [5]. For the same compound, the inhibition result in series [4] is “Dose-dependent effect”.
Consider `O=C(CSc1nnc(-c2c[nH]c3ccccc23)n1CC1CCCO1)c1ccc(Cl)s1` (centres undefined), for which the half-maximal inhibitory concentration (IC50) in series [1] came to 66 µM; in series [2] it was 34.7 µM; in series [3], 79.4 µM; in series [5] it was 45.7 µM. Further, the inhibition entry in series [4] is “Dose-dependent effect”.
Taken in the same sequence, the figures for `COc1ccc(NS(=O)(=O)c2ccc3c(c2)N(C(C)=O)CC(C)O3)cc1Cl` (centres undefined) were 23 µM, > 100 µM, 77.6 µM, 45.7 µM and “Dose-dependent effect”.
Take `NC(=O)C1CCN(c2nc(CSc3ccccc3)nc3sc4c(c23)CCCC4)CC1`: the IC50 in series [1] came to 11 µM; in series [2] it was 11.5 µM; in series [3], 52.5 µM; in series [5] it was 45.7 µM. Moreover, the efflux ratio at 2 h, 75 µM in series [6] was determined as 1.82. For the same compound, in series [4], the inhibition entry was “Dose-dependent effect”. The Papp B→A at 2 h, 75 µM in series [7] was 82 ×10⁻⁶ cm/s. For the same compound, the Papp A→B at 2 h, 75 µM in series [8] was 45 ×10⁻⁶ cm/s.
Take `CCCSc1nnc(N2C(=O)C(O)=C(C(=O)c3ccco3)C2c2ccccc2F)s1` (centres undefined): the half-inhibitory concentration (IC50) is 25.2 µM in series [1], 10.3 µM in series [2], > 100 µM in series [3] and 55 µM in series [5]. The inhibition result in series [4] is “Dose-dependent effect”.
Taken in the same sequence, the figures for `COc1ccc(-n2c(SCC(=O)c3ccc(OC(F)F)cc3)nc3ccccc32)cc1` were 9 µM, 52.5 µM, 63.9 µM, 37.1 µM and “Dose-dependent effect”.
Taken in the same sequence, the figures for `COc1ccc(-c2nc3ccccc3c3nnc(SCc4ncc(C)c(OC)c4C)n23)cc1` were 1.4 µM, 66 µM, > 100 µM, 19 µM and “Dose-dependent effect”.
For `CSc1ccccc1NC(=O)c1cnn2c(C(F)F)cc(-c3ccc(C)cc3)nc12`, the IC50 in series [1] was 6 µM; in series [2], 57.5 µM; in series [3], 100 µM; in series [5] it was 95.5 µM. For the same compound, the inhibition result in series [4] is “Dose-dependent effect”.
For the compound `Cc1cccc(-c2nnc(SCC(=O)c3ccc(O)cc3O)n2-c2ccccc2)c1`, the IC50 in series [1] came out at 67.2 µM; in series [2], 12.7 µM; in series [3], 33.1 µM; in series [5] it was 16 µM. For the same compound, the efflux ratio at 2 h, 75 µM in series [6] amounted to 0.59. For the same compound, the inhibition result in series [4] was “Dose-dependent effect”. In series [7], the Papp B→A at 2 h, 75 µM amounted to 13 ×10⁻⁶ cm/s. The Papp A→B at 2 h, 75 µM in series [8] turned out to be 22 ×10⁻⁶ cm/s.
Turning to `CCc1cccc(NC(=O)c2cnn3c(C(F)F)cc(-c4ccc(C)cc4)nc23)c1`, the IC50 in series [1] is 9.2 µM; in series [2] it was 100 µM; in series [3] it was > 100 µM; in series [5], 95.5 µM. The inhibition entry in series [4] is “Dose-dependent effect”.
With `COc1cc2c(c(OC)c1OC)-c1ccc(OC)c(=O)cc1[C@@H](NC(C)=O)CC2` [COLCHICINE], the IC50 in series [3] came to 0.042 µM.
With `O=C(Cn1cc(CNC2(c3ccccc3F)CCCC2)c2ccccc21)NC1CC1`, the IC50 in series [1] is 29 µM; in series [2] it was > 100 µM; in series [3], > 100 µM; in series [5], 52.5 µM. The inhibition entry in series [4] is “Dose-dependent effect”.
As to `O=C(c1c[nH]c2ccccc12)C(NCc1ccc2c(c1)OCO2)c1ccccc1` (centres undefined), the 50% inhibitory concentration (IC50) was 26 µM in series [1], 17.4 µM in series [2], 32.4 µM in series [3] and 22.4 µM in series [5]. Besides, the efflux ratio at 2 h, 75 µM in series [6] is 1.02. Further, the inhibition result in series [4] is “Dose-dependent effect”. For the same compound, the Papp B→A at 2 h, 75 µM in series [7] is 92 ×10⁻⁶ cm/s. In series [8], the Papp A→B at 2 h, 75 µM came out at 90 ×10⁻⁶ cm/s.
In the case of `CCOc1ccc(-n2c(SCC(=O)N3CCOCC3)nnc2-c2cccc(C)c2)cc1`, the IC50 in series [1] is 93 µM; in series [2], > 100 µM; in series [3], > 100 µM; in series [5], 61.6 µM. In addition, in series [4], the inhibition result is “Dose-dependent effect”.
As to `C=CCOc1ccccc1CN(C(=O)CN1CCNC(=O)C1)c1ccc2c(c1)OCO2`, the IC50 in series [1] is 32 µM; in series [2], > 100 µM; in series [3] it was > 100 µM; in series [5], 66 µM. Also, in series [4], the inhibition entry was “Dose-dependent effect”.
For `COc1ccc(C)cc1NC(=O)c1cnn2c(C(F)F)cc(-c3ccc(C)cc3)nc12`, the IC50 in series [1] is 7 µM; in series [2] it was 67.6 µM; in series [3], > 100 µM; in series [5], 15.1 µM. The inhibition entry in series [4] was “Dose-dependent effect”.
On to `CCCCN1C(=O)c2[nH]nc(-c3ccccc3O)c2C1c1ccc(OCC)cc1` (centres undefined), for which the IC50 in series [1] was determined as 5.2 µM; in series [2] it was 22.5 µM; in series [3], 18.3 µM; in series [5], 21 µM. In addition, in series [6], the efflux ratio at 2 h, 75 µM was found to be 0.87. Further, the inhibition result in series [4] is “Dose-dependent effect”. In addition, in series [7], the Papp B→A at 2 h, 75 µM was found to be 55 ×10⁻⁶ cm/s. Further, in series [8], the Papp A→B at 2 h, 75 µM turned out to be 63 ×10⁻⁶ cm/s.
For the compound `Cc1cccc(-n2ccnc2SCC(=O)c2ccc3c(c2)CCC(=O)N3)c1`, the concentration for half-maximal inhibition (IC50) in series [1] worked out at 66 µM; in series [2], 67.6 µM; in series [3] it was 91.2 µM; in series [5], 81.7 µM. The inhibition result in series [4] was “Dose-dependent effect”.
Consider `COc1ccc(-c2cc(C(F)F)n3ncc(C(=O)Nc4cc(Cl)ccc4O)c3n2)cc1`, for which the IC50 in series [1] is 2.2 µM; in series [2], 40 µM; in series [3] it was > 100 µM; in series [5], 74 µM. For the same compound, the efflux ratio at 2 h, 75 µM in series [6] was 1.16. Moreover, the inhibition result in series [4] is “Dose-dependent effect”. Besides, the apparent permeability from basolateral to apical (Papp B→A) at 2 h, 75 µM in series [7] is 21 ×10⁻⁶ cm/s. The Papp A→B at 2 h, 75 µM in series [8] was found to be 18 ×10⁻⁶ cm/s.
As for `Cc1ccc(-n2c(SCC(=O)N3CC(=O)Nc4ccccc43)nnc2-c2cccc(C)c2)cc1`, the IC50 in series [1] is 68 µM; in series [2], 72.4 µM; in series [3], > 100 µM; in series [5], 83 µM. In addition, the inhibition result in series [4] is “Dose-dependent effect”.
Turning to `Cn1cc(SCC(=O)N2N=C(c3cccs3)CC2c2ccc(F)cc2)c2ccccc21` (centres undefined), the IC50 in series [1] was 37.1 µM; in series [2], 11.7 µM; in series [3] it was > 100 µM; in series [5], 44 µM. In addition, the efflux ratio at 2 h, 75 µM in series [6] is 1.2. In series [4], the inhibition entry was “Dose-dependent effect”. The Papp B→A at 2 h, 75 µM in series [7] stood at 47 ×10⁻⁶ cm/s. In addition, in series [8], the Papp A→B at 2 h, 75 µM was found to be 39 ×10⁻⁶ cm/s.
As for `COc1ccc(C2CCCN2CC(=O)Nc2ccccc2-c2ccccc2)cc1` (centres undefined), the IC50 worked out at 7 µM in series [1], 8.7 µM in series [2], 35.5 µM in series [3] and 20.8 µM in series [5]. Further, the inhibition entry in series [4] is “Dose-dependent effect”.
On the same counts, the results for `CCC(c1nnc(SCC(=O)c2[nH]c(C)c(C(C)=O)c2C)n1Cc1ccccc1)N(C)C` (centres undefined) are 10 µM, 37 µM, 96.9 µM, 74.1 µM and “Dose-dependent effect”.
Taken in the same sequence, the figures for `CC(=O)Nc1ccc(C2=CC(c3ccc(Cl)cc3Cl)n3nc(CCCO)nc3N2)cc1` (centres undefined) were 66 µM, 61.7 µM, 74.1 µM, 63.1 µM and “Dose-dependent effect”.
Take `COc1cc2c(=O)c(C(=O)c3ccc(C)c(C)c3)cn(Cc3ccc(F)cc3)c2cc1OC`: the IC50 in series [1] is 5.7 µM; in series [2] it was 25.1 µM; in series [3] it was 72.4 µM; in series [5], 36.3 µM. For the same compound, in series [4], the inhibition result is “Dose-dependent effect”.
Taken in the same sequence, the figures for `CCOC(=O)C1CCCN(C(=O)c2cc(-c3ccc(Cl)cc3)nc3ccccc23)C1` (centres undefined) were 17.4 µM, 38 µM, 100 µM, 54.9 µM and “Dose-dependent effect”.
On the same counts, the results for `CCOC(=O)c1c(NC(=O)C2CC(=O)Nc3ccccc32)sc(C)c1C` (centres undefined) are 9 µM, 67.5 µM, > 100 µM, > 100 µM and “Dose-dependent effect”.
